The values below come from patent US20150353495A1 (PORTOLA PHARMACEUTICALS, INC., priority 2010, published 2015).

Structures are written as SMILES.

Common to all, as to assay type: biochemical
One test deals with T1, JAK2 (Homo sapiens, UniProt O60674).
T1 construct: 5 μl of catalytic domain recombinant Kinase enzyme+Tyr peptide substrate (Invitrogen, CA); purchased Invitrogen
The test is described as follows: Z'-LYTE kinase assay JAK2. As to the method: (§1) JAK and TYK2 tyrosine phosphorylation activity is measured using the Z′-LYTE™ Technology developed by Invitrogen Corporation (Carlsbad, Calif.). For JAK1, JAK2 and JAK3 the Z′-LYTE™ Kinase Assay Kit-Tyr6 Peptide (part number PV4122) was used. For TYK2 the Z′-LYTE™ Kinase Assay Kit-Tyr6 Peptide (part number PV3192) was used. The Z′-LYTE™ biochemical assay employs a fluorescence resonance energy transfer (FRET) coupled-enzyme format and is based on the differential sensitivity of phosphorylated and non-phosphorylated peptides to proteolitic cleavage. The assay uses a synthetic peptide substrate that is labelled with a donor fluorophore (coumarin) and an acceptor fluorophore (fluorescein) that make up a FRET pair. In the primary reaction (the Kinase Reaction), the kinase transfers the γ-phosphate of ATP to a single tyrosine residue on the substrate, while the presence of a kinase inhibitor in the primary reaction suppresses phosphorylation. In the secondary reaction (the Development Reaction), a site-specific protease (the Development Reagent) is added. The development buffer quenches the Kinase Reaction, while the protease recognizes and cleaves non-phosphorylated Z′-LYTE™ peptide substrate. Cleavage disrupts FRET between the donor and acceptor fluorophores on the non-phosphoryleted substrate, while uncleaved, phosphorylated substrate maintains FRET.
(§2) To test the ability of candidate molecules to inhibit JAK tyrosine phosphorylation activity, molecules are reconstituted in 100% DMSO and serially diluted 1:10 in polypropylene v-bottom microtiter plates. The candidate molecules are then diluted 1:25 into kinase buffer and 2.5 μl transferred into duplicate wells of a 384 well low volume black microtiter assay plate (Corning, USA). The final DMSO concentration in the assay is 1%. The kinase reaction contains 2.5 μl of a candidate molecule, 5 μl of catalytic domain recombinant Kinase enzyme+Tyr peptide substrate (Invitrogen, CA) and 2.5 μl ATP (Invitrogen, CA). The kinase reaction is allowed to procede for 1 hour at room temperature. The protease reaction is initiated by the addition of 5 μl Development Reagent (Invitrogen, CA). After 1 hour incubation at room temperature the fluorescence is measured using a FlexStation plate reader (Molecular Devices, Sunnyvale, Calif.).

Another test addresses T2, JAK1 (Homo sapiens, UniProt P23458).
T2 construct: 5 μl of catalytic domain recombinant Kinase enzyme+Tyr peptide substrate (Invitrogen, CA); purchased Invitrogen
The test is described as follows: Z'-LYTE kinase assay JAK1. Here is the method: as §1, §2

The target of another test is T3, JAK3 (Homo sapiens, UniProt P52333).
T3 construct: 5 μl of catalytic domain recombinant Kinase enzyme+Tyr peptide substrate (Invitrogen, CA); purchased Invitrogen
In words: Z'-LYTE kinase assay JAK3. As to the method: as §1, §2

T3 sequence (P52333 822-1111 limits assumed): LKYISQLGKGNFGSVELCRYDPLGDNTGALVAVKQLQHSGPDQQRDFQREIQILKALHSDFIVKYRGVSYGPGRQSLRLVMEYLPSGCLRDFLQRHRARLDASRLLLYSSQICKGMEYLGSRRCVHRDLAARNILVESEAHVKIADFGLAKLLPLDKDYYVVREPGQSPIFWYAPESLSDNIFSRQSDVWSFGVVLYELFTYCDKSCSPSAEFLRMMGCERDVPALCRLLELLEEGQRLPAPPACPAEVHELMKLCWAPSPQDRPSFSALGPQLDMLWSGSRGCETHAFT
T1 sequence (O60674 849-1124 limits assumed): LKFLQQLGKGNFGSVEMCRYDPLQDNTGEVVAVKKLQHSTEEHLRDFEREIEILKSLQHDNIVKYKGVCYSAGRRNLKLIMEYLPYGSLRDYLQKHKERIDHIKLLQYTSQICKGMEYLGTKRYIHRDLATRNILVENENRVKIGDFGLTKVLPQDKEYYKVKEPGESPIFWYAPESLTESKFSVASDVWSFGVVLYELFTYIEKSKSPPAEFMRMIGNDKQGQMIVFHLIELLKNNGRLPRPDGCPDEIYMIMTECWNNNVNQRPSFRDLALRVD
T2 sequence (P23458 875-1153 limits assumed): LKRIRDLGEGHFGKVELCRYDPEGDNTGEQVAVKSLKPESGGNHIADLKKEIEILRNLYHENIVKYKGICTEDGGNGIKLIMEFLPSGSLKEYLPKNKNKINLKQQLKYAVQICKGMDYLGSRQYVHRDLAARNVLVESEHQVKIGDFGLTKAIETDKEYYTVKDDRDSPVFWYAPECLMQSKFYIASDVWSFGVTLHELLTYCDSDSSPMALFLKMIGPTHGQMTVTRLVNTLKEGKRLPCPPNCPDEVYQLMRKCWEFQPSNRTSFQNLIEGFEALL

Regarding `NC(=O)c1cnc(Nc2ccc(C3CCOCC3)cc2)cc1NCc1ccccc1F` [Example 142, 4-(2-fluorobenzylamino)-6-(4-(tetrahydro-2H-pyran-4-yl)phenylamino)nicotinamide], the IC50 was 0.1 to 1 µM against JAK2, > 1 µM against JAK1 and 0.01 to 0.1 µM against JAK3.
On the same counts, the results for `CCC(=O)N1CCC(c2ccc(Nc3cc(NCC4CCOCC4)c(C(N)=O)cn3)cc2)CC1` [Example 144, 6-(4-(1-propionylpiperidin-4-yl)phenylamino)-4-((tetrahydro-2H-pyran-4-yl)methylamino)nicotinamide] are 0.1 to 1 µM, > 1 µM and 0.01 to 0.1 µM.
Take `CCC(=O)N1CCC(c2ccc(Nc3cc(NCc4cccc(F)c4)c(C(N)=O)cn3)cc2)CC1` [Example 145, 4-(3-fluorobenzylamino)-6-(4-(1-propionylpiperidin-4-yl)phenylamino)nicotinamide]: the IC50 on JAK2 is 0.01 to 0.1 µM; against JAK1, > 1 µM; against JAK3, 0.001 to 0.01 µM.
On the same counts, the results for `CCC(=O)N1CCC(c2ccc(Nc3cc(NC4CCOCC4)c(C(N)=O)cn3)cc2)CC1` [Example 146, 6-(4-(1-propionylpiperidin-4-yl)phenylamino)-4-(tetrahydro-2H-pyran-4-ylamino)nicotinamide] are 0.1 to 1 µM, > 1 µM and 0.1 to 1 µM.
For `CCC(=O)N1CCC(c2ccc(Nc3cc(NC4CCCC4)c(C(N)=O)cn3)cc2)CC1` [Example 147, 4-(cyclopentylamino)-6-(4-(1-propionylpiperidin-4-yl)phenylamino)nicotinamide], the half-inhibitory concentration (IC50) against JAK2 lay within 0.1 to 1 µM; against JAK1 it was 0.1 to 1 µM; against JAK3, 0.01 to 0.1 µM.
Regarding `CCC(=O)N1CCC(c2ccc(Nc3cc(NCc4ccc(F)c(F)c4)c(C(N)=O)cn3)cc2)CC1` [Example 148, 4-(3,4-difluorobenzylamino)-6-(4-(1-propionylpiperidin-4-yl)phenylamino)nicotinamide], the IC50 was 0.1 to 1 µM against JAK2, > 1 µM at JAK1 and 0.1 to 1 µM against JAK3.
Regarding `NC(=O)c1cnc(Nc2ccc(C3CCOCC3)cc2)cc1NC1CCCC1` [Example 150, 4-(cyclopentylamino)-6-(4-(tetrahydro-2H-pyran-4-yl)phenylamino)nicotinamide], the IC50 against JAK2, on JAK1 and on JAK3 was 0.1 to 1 µM in each case.
Regarding `NC(=O)c1cnc(Nc2cccc(C3CCOCC3)c2)cc1NC1CCOCC1` [Example 151, 6-(3-(tetrahydro-2H-pyran-4-yl)phenylamino)-4-(tetrahydro-2H-pyran-4-ylamino)nicotinamide], the IC50 against JAK2, against JAK1 and at JAK3 was 0.1 to 1 µM in each case.
For `NC(=O)c1cnc(Nc2cccc(C3CCOCC3)c2)cc1NCc1ccccc1F` [Example 152, 4-(2-fluorobenzylamino)-6-(3-(tetrahydro-2H-pyran-4-yl)phenylamino)nicotinamide], the values for the IC50 against JAK2, against JAK1 and against JAK3 were 0.01 to 0.1 µM, 0.1 to 1 µM and 0.001 to 0.01 µM, respectively.
Taken in the same sequence, the figures for `NC(=O)c1cnc(Nc2ccc(C3CCOCC3)cc2)cc1NCC1CC1` [Example 153, 4-(cyclopropylmethylamino)-6-(4-(tetrahydro-2H-pyran-4-yl)phenylamino)nicotinamide] were 0.1 to 1 µM, > 1 µM and 0.1 to 1 µM.
Taken in the same sequence, the figures for `NC(=O)c1cnc(Nc2ccc(C3CCOCC3)cc2)cc1NCC1CCCC1` [Example 154, 4-(cyclopentylmethylamino)-6-(4-(tetrahydro-2H-pyran-4-yl)phenylamino)nicotinamide] were 0.1 to 1 µM, > 1 µM and 0.01 to 0.1 µM.
As to `CC(C)(C)CNc1cc(Nc2ccc(C3CCOCC3)cc2)ncc1C(N)=O` [Example 155, 4-(neopentylamino)-6-(4-(tetrahydro-2H-pyran-4-yl)phenylamino)nicotinamide], the IC50 against JAK2, at JAK1 and at JAK3 was 0.1 to 1 µM in each case.
Take `CC(C)CNc1cc(Nc2ccc(C3CCOCC3)cc2)ncc1C(N)=O` [Example 156, 4-(isobutylamino)-6-(4-(tetrahydro-2H-pyran-4-yl)phenylamino)nicotinamide]: the concentration for half-maximal inhibition (IC50) at JAK2, on JAK1 and at JAK3 was 0.1 to 1 µM throughout.
With `NC(=O)c1cnc(Nc2ccc(C3CCOCC3)cc2)cc1NC1CCCCC1` [Example 157, 4-(cyclohexylamino)-6-(4-(tetrahydro-2H-pyran-4-yl)phenylamino)nicotinamide], the IC50 on JAK2 was > 1 µM; against JAK1, > 1 µM; on JAK3 it was 0.1 to 1 µM.
In the case of `CC(C)c1ccc(Nc2cc(NCc3ccccc3F)c(C(N)=O)cn2)cc1` [Example 158, 4-(2-fluorobenzylamino)-6-(4-isopropylphenylamino)nicotinamide], the IC50 on JAK2 is > 1 µM; against JAK1, > 1 µM; on JAK3, 0.01 to 0.1 µM.
On to `CS(=O)(=O)N1CCC(CNc2cc(Nc3ccc(C4CCOCC4)cc3)ncc2C(N)=O)CC1` [Example 159, 4-((1-(methylsulfonyl)piperidin-4-yl)methylamino)-6-(4-(tetrahydro-2H-pyran-4-yl)phenylamino)nicotinamide], for which the IC50 was > 1 µM on JAK2, > 1 µM at JAK1 and 0.1 to 1 µM against JAK3.
Take `CCS(=O)(=O)N1CCC(CNc2cc(Nc3ccc(C4CCOCC4)cc3)ncc2C(N)=O)CC1` [Example 160, 4-((1-(ethylsulfonyl)piperidin-4-yl)methylamino)-6-(4-(tetrahydro-2H-pyran-4-yl)phenylamino)nicotinamide]: the IC50 on JAK2, on JAK1 and at JAK3 was > 1 µM each time.
In the case of `CCC(=O)N1CCC(CNc2cc(Nc3ccc(C4CCOCC4)cc3)ncc2C(N)=O)CC1` [Example 161], the IC50 on JAK2, on JAK1 and on JAK3 was > 1 µM each time.
Take `CC(C)c1cccc(Nc2cc(NCc3ccccc3F)c(C(N)=O)cn2)c1` [Example 162, 4-(2-fluorobenzylamino)-6-(3-isopropylphenylamino)nicotinamide]: the IC50 on JAK2 is > 1 µM; against JAK1, > 1 µM; against JAK3 it was 0.1 to 1 µM.
For `CN(C)C(=O)N1CCC(Nc2cc(Nc3ccc(C4CCOCC4)cc3)ncc2C(N)=O)CC1` [Example 163, 4-(1-(dimethylcarbamoyl)piperidin-4-ylamino)-6-(4-(tetrahydro-2H-pyran-4-yl)phenylamino)nicotinamide], the IC50 against JAK2 is > 1 µM; against JAK1 it was > 1 µM; against JAK3, 0.1 to 1 µM.
Take `CCC(=O)N1CCC(Nc2cc(Nc3ccc(C4CCOCC4)cc3)ncc2C(N)=O)CC1` [Example 164, 4-(1-propionylpiperidin-4-ylamino)-6-(4-(tetrahydro-2H-pyran-4-yl)phenylamino)nicotinamide]: the IC50 against JAK2, against JAK1 and at JAK3 was > 1 µM throughout.
`CS(=O)(=O)N1CCC(Nc2cc(Nc3ccc(C4CCOCC4)cc3)ncc2C(N)=O)CC1` [Example 165, 4-(1-(methylsulfonyl)piperidin-4-ylamino)-6-(4-(tetrahydro-2H-pyran-4-yl)phenylamino)nicotinamide]: the results for the IC50 against JAK2, on JAK1 and at JAK3 were > 1 µM, 0.1 to 1 µM and 0.1 to 1 µM, respectively.
With `CCS(=O)(=O)N1CCC(Nc2cc(Nc3ccc(C4CCOCC4)cc3)ncc2C(N)=O)CC1` [Example 166, 4-(1-(ethylsulfonyl)piperidin-4-ylamino)-6-(4-(tetrahydro-2H-pyran-4-yl)phenylamino)nicotinamide], the IC50 on JAK2 was 0.1 to 1 µM; on JAK1, > 1 µM; against JAK3, 0.1 to 1 µM.
In the case of `C[C@H](Nc1cc(Nc2ccc(C3CCOCC3)cc2)ncc1C(N)=O)C(C)(C)C` [Example 167, (S)-4-(3,3-dimethylbutan-2-ylamino)-6-(4-(tetrahydro-2H-pyran-4-yl)phenylamino)nicotinamide], the IC50 is > 1 µM at JAK2, > 1 µM against JAK1 and 0.1 to 1 µM on JAK3.
In the case of `C[C@@H](Nc1cc(Nc2ccc(C3CCOCC3)cc2)ncc1C(N)=O)C(C)(C)C` [Example 168, (R)-4-(3,3-dimethylbutan-2-ylamino)-6-(4-(tetrahydro-2H-pyran-4-yl)phenylamino)nicotinamide], the figures for the IC50 against JAK2, on JAK1 and at JAK3 were 0.01 to 0.1 µM, 0.1 to 1 µM and 0.01 to 0.1 µM, respectively.
